Source: patent US20260365664A1, “HARRINGTONINE DERIVATIVE, PHARMACEUTICAL COMPOSITION THEREOF, PREPARATION METHOD THEREFOR, AND USE THEREOF” (NANKAI UNIVERSITY, priority 2022, published 2026)

Tests used:
Type in all cases: cell-based
[1] = tested on: human leukemia cells HL-60; assay: MTT in vitro cell growth inhibition, human leukemia cells HL-60 (48 h); conditions: HL-60 cells
Procedure: (§1) Human breast cancer cell MCF-7, hepatocellular carcinoma cell HepG2, lung adenocarcinoma cell A549 were purchased from Shanghai Cell Bank of Chinese Academy of Sciences. Human leukemia cells HL-60, human leukemia cells adriamycin-resistant strain HL-60/ADR, and human glioblastoma cells U-87MG were purchased from Shanghai Chuanqiu Biotechnology Co. Human cervical cancer HeLa was purchased from Shanghai Jikai Gene Chemistry Technology Co. Human colon cancer cells HCT-116, human brain microvascular endothelial cells hCMEC/D3 were preserved by Tianjin Suntech Pharmaceutical Technology Co. Human colon cancer cells Sw620 and human colon cancer cells LoVo were provided by Tianjin Medical University Hospital.
(§2) Human breast cancer cell MCF-7, hepatocellular carcinoma cell HepG2, lung adenocarcinoma cell A549, human leukemia cell HL-60, human leukemia cell adriamycin-resistant strain HL-60/ADR, human glioblastoma cell U-87MG, human cervical carcinoma cell HeLa, human colon carcinoma cell HCT-116, human colon carcinoma cell Sw620, human colon carcinoma cell LoVo, Human brain microvascular endothelial cells HCMEC/D3 were cultured using DMEM medium. The medium was supplemented with 10% fetal bovine serum and 1% double antibody (penicillin+streptomycin), and the culture environment was an incubator filled with 5% CO2 at a temperature of 37 °C, when the cells basically grew all over the bottom of the dish (about 80%-90%), passaging culture was performed.
(§3) Preparation of MTT solution: Weigh 50 mg of MTT, dissolve it in 10 mL of phosphate buffer solution (PBS), dispense it, and store it at 4 °C away from light, it will be effective within two weeks.
(§4) Take the series of compounds diluted with medium to form 1 mg/ml master batch, before use, precise aspiration of the appropriate amount of sample master batch diluted with medium to form working solutions with different concentration gradients, such as 100 μg/ml, 10 μg/ml, 1 μg/ml, 0.1 μg/ml, 0.01 μg/ml, 0.001 μg/ml and so on.
(§5) 1. Take log phase cells, digest, centrifuge and resuspend. The cell density was adjusted to 1×10^5 cells/mL by adding culture medium, and 100 μl of prepared cell suspension per well was added and inoculated into 96-well cell culture plates, after which they were placed in a cell culture incubator for incubation.
(§6) 2. After 24 h of culture, the test group was added 2 μl of the series of compounds with concentrations of 100 μg/ml, 10 μg/ml, 1 μg/ml, 0.1 μg/ml, 0.01 μg/ml, 0.001 μg/ml, and 4 replicate wells were set up for each concentration, as well as a positive control group (etoposide) and a blank control group.
(§7) 3. The 96-well plates were incubated separately for 48 h and then 20 μl of MTT solution (concentration of 5 mg/ml) was added to each well and incubation was continued for 4 hours in the incubator.
(§8) 4. Remove the 96-well plate from the incubator, carefully aspirate the medium in the wells with a micropipette, and add 150 μl of dimethyl sulfoxide to each well, shake to dissolve the crystals completely, and then measure the absorbance OD value using an enzyme counter at 492 nm.
(§9) 5. The test was repeated three times consecutively and the cell inhibition rate was calculated according to the following formula: cell inhibition rate (%)=[1−OD value of the test group/OD of the blank control group)]×100%, and the IC50 value of the half inhibitory concentration of the samples for inhibiting cell growth was calculated.

[2] = tested on: human colon cancer cells HCT-116; assay: MTT in vitro cell growth inhibition, human colon cancer cells HCT-116 (48 h); conditions: HCT116 cells
Procedure: as §1, §2, §3, §4, §5, §6, §7, §8, §9

[3] = tested on: human brain microvascular endothelial cells hCMEC/D3; assay: MTT in vitro cell growth inhibition, human brain microvascular endothelial cells hCMEC/D3 (48 h)
Procedure: as §1, §2, §3, §4, §5
2. […]
(§10) 4. Remove the 96-well plate from the incubator, carefully aspirate the medium in the wells with a micropipette, and add 150 μl of dimethyl sulfoxide to each well, shake to dissolve the crystals completely, and then measure the absorbance OD value using an enzyme counter at 492 nm. […]

[4] = tested on: lung adenocarcinoma cell A549; assay: MTT in vitro cell growth inhibition, lung adenocarcinoma cell A549 (48 h); conditions: Homo sapiens, A549 cells
Procedure: as §1, §2, §3, §4, §5, §6, §7, §8, §9

[5] = tested on: human cervical cancer HeLa; assay: MTT in vitro cell growth inhibition, human cervical cancer HeLa (48 h); conditions: HeLa cells
Procedure: as §1, §2
(§11) Preparation of MTT solution: Weigh 50 mg of MTT, dissolve it in 10 mL of phosphate buffer solution (PBS), dispense it, and store it at 4 °C away from light, it will be effective within two weeks. […]
as §10

[6] = tested on: hepatocellular carcinoma cell HepG2; assay: MTT in vitro cell growth inhibition, hepatocellular carcinoma cell HepG2 (48 h); conditions: Homo sapiens, HepG2 cells
Procedure: as §1, §2, §3, §4, §5, §6, §7, §8, §9

[7] = tested on: human colon cancer cells LoVo; assay: MTT in vitro cell growth inhibition, human colon cancer cells LoVo (48 h)
Procedure: as §1, §2, §11, §10

[8] = tested on: human colon cancer cells Sw620; assay: MTT in vitro cell growth inhibition, human colon cancer cells Sw620 (48 h); conditions: SW-620
Procedure: as §1, §2, §11, §10

[9] = tested on: human breast cancer cell MCF-7; assay: MTT in vitro cell growth inhibition, human breast cancer cell MCF-7 (48 h); conditions: MCF7, MCF-7 cells
Procedure: as §1, §2, §3, §4, §5, §6, §7, §8, §9

SMILES	IC50 [1] [nM]	IC50 [4] [nM]	IC50 [6] [nM]	IC50 [9] [nM]	also measured
COC(=O)C[C@](O)(CCc1cccc(NC(=O)Nc2ccc(OC)cc2)c1)C(=O)O[C@@H]1C(OC)=C[C@]23CCCN2CCc2cc4c(cc2C13)OCO4 (stereo partly drawn) [Compound I-1-22]	13.5	–	–	–	–
COC1=C[C@]23CCCN2CCc2cc4c(cc2[C@@H]3[C@@H]1OC(=O)C(O)(CCC(C)C)CC(=O)SC)OCO4 (stereo partly drawn) [Compound I-2-52]	–	–	–	–	IC50 [2]: 46 nM
CCCCC(O)(C/C=N\OC(=O)C(C)C)C(=O)O[C@@H]1C(OC)=C[C@]23CCCN2CCc2cc4c(cc2[C@H]13)OCO4 (stereo partly drawn) [Compound I-3-24]	67	36	–	–	IC50 [3]: 245 nM; IC50 [2]: 24 nM
COC(=O)C[C@](O)(CCC(F)(F)C(F)(F)F)C(=O)O[C@@H]1C(OC)=C[C@]23CCCN2CCc2cc4c(cc2[C@H]13)OCO4 [Compound I-2-30]	–	21	–	–	IC50 [5]: 28 nM
COC(=O)C[C@](O)(CCc1cccc(NC(=O)NC2CCCCC2)c1)C(=O)O[C@@H]1C(OC)=C[C@]23CCCN2CCc2cc4c(cc2C13)OCO4 (stereo partly drawn) [Compound I-1-9]	8.9	–	–	–	–
COC(=O)C[C@](O)(CCc1cccc2ccccc12)C(=O)O[C@@H]1C(OC)=C[C@]23CCCN2CCc2cc4c(cc2[C@H]13)OCO4 [Compound I-2-43]	–	–	15	–	–
COC1=C[C@]23CCCN2CCc2cc4c(cc2[C@@H]3[C@@H]1OC(=O)C(O)(C/C=N/OC(=O)[C@H](C)c1ccc2cc(OC)ccc2c1)CCc1ccc2c(c1)CCO2)OCO4 (stereo partly drawn) [Compound I-3-34]	–	283	–	–	IC50 [2]: 26 nM
COC1=C[C@]23CCCN2CCc2cc4c(cc2[C@@H]3[C@@H]1OC(=O)C(O)(C/C=N/OC(=O)NC1CCCC1)CCC(C)C)OCO4 (stereo partly drawn) [Compound I-3-46]	42	53	–	–	IC50 [3]: 60 nM
COC1=C[C@]23CCCN2CCc2cc4c(cc2[C@@H]3[C@@H]1OC(=O)C(O)(C/C=N\OC(C)=O)CCC(C)C)OCO4 (stereo partly drawn) [Compound I-3-13]	18	45	–	–	IC50 [2]: 16 nM
COC1=C[C@]23CCCN2CCc2cc4c(cc2[C@@H]3[C@@H]1OC(=O)C(O)(C/C=N/OC(=O)[C@H](C)c1ccc2cc(OC)ccc2c1)CCC(C)C)OCO4 (stereo partly drawn) [Compound I-3-31]	20	21	–	–	IC50 [7]: 45 nM; IC50 [3]: 24 nM; IC50 [8]: 3.4 nM
COC(=O)C[C@](O)(CCc1ccccc1C(F)(F)F)C(=O)O[C@@H]1C(OC)=C[C@]23CCCN2CCc2cc4c(cc2[C@H]13)OCO4 [Compound I-2-38]	–	290	75	220	–
COC(=O)C[C@](O)(CCc1cccc(F)c1F)C(=O)O[C@@H]1C(OC)=C[C@]23CCCN2CCc2cc4c(cc2[C@H]13)OCO4 [Compound I-2-35]	–	60	23	110	–
C=CC(=O)O/N=C/CC(O)(CCC(C)C)C(=O)O[C@@H]1C(OC)=C[C@]23CCCN2CCc2cc4c(cc2[C@H]13)OCO4 (stereo partly drawn) [Compound I-3-22]	–	39	–	–	IC50 [2]: 48 nM
COC1=C[C@]23CCCN2CCc2cc4c(cc2[C@@H]3[C@@H]1OC(=O)C(O)(C/C=N\OC(=O)C(C)C)CCC=C(C)C)OCO4 (stereo partly drawn) [Compound I-3-25]	–	92	–	–	–
COC(=O)C[C@](O)(CCc1ccc(OC)cc1)C(=O)O[C@@H]1C(OC)=C[C@]23CCCN2CCc2cc4c(cc2[C@H]13)OCO4 [Compound I-2-45]	–	210	17	90	–
COC(=O)C[C@](O)(CCc1cccc(NC(=O)Nc2ccc(C)cc2)c1)C(=O)O[C@@H]1C(OC)=C[C@]23CCCN2CCc2cc4c(cc2[C@H]13)OCO4 [Compound I-1-1]	–	–	25	4.3	–
COC(=O)C[C@](O)(CCc1cccc(NC(C)=O)c1)C(=O)O[C@@H]1C(OC)=C[C@]23CCCN2CCc2cc4c(cc2[C@H]13)OCO4 [Compound I-2-9]	3.3	–	48	34	–
COC1=C[C@]23CCCN2CCc2cc4c(cc2[C@@H]3[C@@H]1OC(=O)C(O)(C/C=N\OC(=O)C(C)C)CCC(C)C)OCO4 (stereo partly drawn) [Compound I-3-23]	34	21	–	–	IC50 [2]: 71 nM
COC(=O)C[C@@](O)(CCc1cccc([N+](=O)[O-])c1)C(=O)O[C@@H]1C(OC)=C[C@]23CCCN2CCc2cc4c(cc2C13)OCO4 (stereo partly drawn) [Compound I-2-2]	–	–	29	14	–
COC(=O)C[C@](O)(CCc1ccc(SC)cc1)C(=O)O[C@@H]1C(OC)=C[C@]23CCCN2CCc2cc4c(cc2[C@H]13)OCO4 [Compound I-2-41]	–	150	10	60	–
COC(=O)C[C@](O)(CCc1cccc(N)c1)C(=O)O[C@@H]1C(OC)=C[C@]23CCCN2CCc2cc4c(cc2[C@H]13)OCO4 [Compound I-2-5]	3.1	–	40	11	–
COC1=C[C@]23CCCN2CCc2cc4c(cc2[C@@H]3[C@@H]1OC(=O)C(O)(C/C=N/OC(C)=O)CCC=C(C)C)OCO4 (stereo partly drawn) [Compound I-3-15]	–	83	–	–	–
COC(=O)C[C@](O)(CCCC(F)(F)F)C(=O)O[C@@H]1C(OC)=C[C@]23CCCN2CCc2cc4c(cc2[C@H]13)OCO4 [Compound I-2-29]	–	61	–	–	IC50 [5]: 25 nM
COC(=O)C[C@](O)(CCc1ccc2ccccc2c1)C(=O)O[C@@H]1C(OC)=C[C@]23CCCN2CCc2cc4c(cc2[C@H]13)OCO4 [Compound I-2-44]	8.7	20	95	65	–
CCCCC(O)(C/C=N\OC(C)=O)C(=O)O[C@@H]1C(OC)=C[C@]23CCCN2CCc2cc4c(cc2[C@H]13)OCO4 (stereo partly drawn) [Compound I-3-14]	–	44	–	–	IC50 [2]: 69 nM
COC(=O)C[C@](O)(CCCC(C)(C)O)C(=O)O[C@@H]1C(OC)=C[C@]23CCCN2CCc2cc4c(cc2[C@H]13)OCO4 [HHT, homoharringtonine, reference compound]	40	190	22	40	IC50 [7]: 335 nM; IC50 [3]: 171 nM; IC50 [5]: 34 nM; IC50 [8]: 35 nM; IC50 [2]: 26 nM
COC(=O)C[C@](O)(CCc1cccc(NC(=O)NC2CCCC2)c1)C(=O)O[C@@H]1C(OC)=C[C@]23CCCN2CCc2cc4c(cc2C13)OCO4 (stereo partly drawn) [Compound I-1-2]	7.7	70	14	0.5	IC50 [7]: 57 nM; IC50 [8]: 12 nM
